The supplement of paper PMC11061612

What was measured:
[1] = system: NALM-6 (B-Lymphoblastic Leukemia); test: combination Emax (second highest fraction inhibited in the dose matrix, 72 h); higher = more inhibition; extreme values may be limits of the assay
Method in brief: (§1)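 Cell lines in DMEM/F12 or RPMI with 10% FBS were plated in 1536-well plates, held 24 hours at 37°C, 5% CO2, then given two-drug dose matrices for 72 hours (DMSO typically 0.2%). Viability was read by CellTiter-Glo 2.0 luminescence and scaled as inhibition from 0 (vehicle wells) to 1 (blank wells). Combination Emax is the second-highest inhibition in the matrix; Bliss excess is observed combination effect minus expected EA + EB − EA·EB, EA and EB being single-agent effects.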

[2] = system: NCI-H2369 (Mesothelioma); test: as above
Method in brief: as §1

[3] = system: NCI-H2595 (Mesothelioma); test: as above
Method in brief: as §1

[4] = system: MFH-ino (Other Solid Carcinomas); test: as above
Method in brief: as §1

[5] = system: SUIT-2 (Pancreatic Carcinoma); test: as above
Method in brief: as §1

[6] = system: OCI-AML2 (Acute Myeloid Leukemia); test: as above
Method in brief: as §1

[7] = system: SW1088 (Low Grade Glioma); test: as above
Method in brief: as §1

[8] = system: LS-513 (Colorectal Carcinoma); test: as above
Method in brief: as §1

[9] = system: U-266 (Plasma Cell Myeloma); test: as above
Method in brief: as §1

[10] = system: NALM-6 (B-Lymphoblastic Leukemia); test: Bliss excess, mean over the matrix (fraction); higher = more synergy
Method in brief: as §1

[11] = system: NCI-H2369 (Mesothelioma); test: as above
Method in brief: as §1

[12] = system: SW1783 (Low Grade Glioma); test: as above
Method in brief: as §1

[13] = system: TE-5 (Esophageal Squamous Cell Carcinoma); test: as above
Method in brief: as §1

[14] = system: NCI-H1694 (Small Cell Lung Carcinoma); test: as above
Method in brief: as §1

[15] = system: SUIT-2 (Pancreatic Carcinoma); test: as above
Method in brief: as §1

[16] = system: DMS-273 (Small Cell Lung Carcinoma); test: as above
Method in brief: as §1

[17] = system: IHH-4 (Thyroid Gland Carcinoma); test: as above
Method in brief: as §1

[18] = system: MDA-MB-157 (Breast Carcinoma); test: as above
Method in brief: as §1

[19] = system: JiyoyeP-2003 (Burkitt's Lymphoma); test: as above
Method in brief: as §1

[20] = system: LS-513 (Colorectal Carcinoma); test: as above
Method in brief: as §1
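Wherever Bliss excess, mean over the matrix is given: after 72 h of two-drug dosing.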

Question: With Cc1cc2ncnn2cc1Nc1ncc2c(n1)n(C1CCOCC1)c(=O)n2C [AZD7648] + C=CCn1c(=O)c2cnc(Nc3ccc(N4CCN(C)CC4)cc3)nc2n1-c1cccc(C(C)(C)O)n1 [AZD1775] (first compound max 10 µM, partner max 1 µM) as the compound, how does the “combination Emax” value [1] read?
Answer: The value was 0.898.

Question: What about the “combination Emax” value [2] of the same compound?
Answer: The value was 0.314.

Question: And the “combination Emax” value [3]?
Answer: Its value is 0.244.

Question: And the “combination Emax” value [4]?
Answer: Its value is 0.39.

Question: What about the “combination Emax” value [5] of the same compound?
Answer: Its value is 0.656.

Question: What about the “combination Emax” value [6] of the same compound?
Answer: The value was 0.986.

Question: And the “combination Emax” value [7]?
Answer: Its value is 0.504.

Question: And the “combination Emax” value [8]?
Answer: The value was 0.776.

Question: What about the “combination Emax” value [9] of the same compound?
Answer: Its value is 0.697.

Question: What about the Bliss excess [10] of the same compound?
Answer: The Bliss excess was -0.041.

Question: What about the Bliss excess [11] of the same compound?
Answer: The Bliss excess was 0.0034.

Question: And the Bliss excess [12]?
Answer: Its Bliss excess is 0.0078.

Question: And the Bliss excess [13]?
Answer: The Bliss excess was -0.0386.

Question: What about the Bliss excess [14] of the same compound?
Answer: The Bliss excess was -0.0234.

Question: What about the Bliss excess [15] of the same compound?
Answer: Its Bliss excess is -0.0403.

Question: What about the Bliss excess [16] of the same compound?
Answer: The Bliss excess was -0.0349.

Question: And the Bliss excess [17]?
Answer: The Bliss excess was 0.0233.

Question: What about the Bliss excess [18] of the same compound?
Answer: Its Bliss excess is 0.0003.

Question: And the Bliss excess [19]?
Answer: Its Bliss excess is 0.0246.

Question: What about the Bliss excess [20] of the same compound?
Answer: Its Bliss excess is -0.023.

Question: Which results are given for Cc1cc2ncnn2cc1Nc1ncc2c(n1)n(C1CCOCC1)c(=O)n2C [AZD7648] + CCN(CCO)CCCOc1ccc2c(Nc3cc(CC(=O)Nc4cccc(F)c4)[nH]n3)ncnc2c1 [AZD2811] (first compound max 10 µM, 7x7, partner max 1 µM)?
Answer: combination Emax [1]: 0.771; combination Emax [2]: 0.235; combination Emax [3]: 0.203; combination Emax [4]: 0.415; combination Emax [5]: 0.0971; combination Emax [6]: 0.702; combination Emax [7]: 0.686; combination Emax [8]: 0.507; combination Emax [9]: 0.331; Bliss excess [10]: -0.0358; Bliss excess [11]: 0.0252; Bliss excess [12]: 0.0063; Bliss excess [13]: -0.0237; Bliss excess [14]: 0.0483; Bliss excess [15]: -0.0169; Bliss excess [16]: -0.0368; Bliss excess [17]: 0.0429; Bliss excess [18]: 0.0572; Bliss excess [19]: 0.0829; Bliss excess [20]: -0.0033

Question: Which results are given for Cc1cc2ncnn2cc1Nc1ncc2c(n1)n(C1CCOCC1)c(=O)n2C [AZD7648] + CN(C)CCCOc1ccc(-c2ccc3ncc4c(c3c2)n(C2CCOCC2)c(=O)n4C)cn1 [AZD0156] (first compound max 10 µM, 7x7, partner max 1 µM)?
Answer: combination Emax [1]: 0.323; combination Emax [2]: 0.198; combination Emax [3]: 0.208; combination Emax [4]: 0.341; combination Emax [5]: 0.109; combination Emax [6]: 0.367; combination Emax [7]: 0.419; combination Emax [8]: 0.247; combination Emax [9]: 0.226; Bliss excess [10]: -0.0184; Bliss excess [11]: 0.0327; Bliss excess [12]: -0.0078; Bliss excess [13]: -0.0362; Bliss excess [14]: 0.0062; Bliss excess [15]: -0.0125; Bliss excess [16]: 0.05; Bliss excess [17]: 0.0352; Bliss excess [18]: 0.0406; Bliss excess [19]: -0.0067; Bliss excess [20]: -0.021

Question: For Cc1cc2ncnn2cc1Nc1ncc2c(n1)n(C1CCOCC1)c(=O)n2C [AZD7648] + C[C@@H]1COCCN1C2=NC(=NC(=C2)C3(CC3)[S@](=N)(=O)C)C4=C5C=CNC5=NC=C4 [AZD6738] (first compound max 10 µM, 7x7, partner max 10 µM), which “combination Emax” value [1] is on record?
Answer: Its value is 0.932.

Question: And the “combination Emax” value [2]?
Answer: Its value is 0.25.

Question: And the “combination Emax” value [3]?
Answer: The value was 0.208.

Question: What about the “combination Emax” value [4] of the same compound?
Answer: The value was 0.499.

Question: And the “combination Emax” value [5]?
Answer: Its value is 0.611.

Question: What about the “combination Emax” value [6] of the same compound?
Answer: The value was 0.986.

Question: What about the “combination Emax” value [7] of the same compound?
Answer: Its value is 0.671.

Question: What about the “combination Emax” value [8] of the same compound?
Answer: The value was 0.762.

Question: And the “combination Emax” value [9]?
Answer: The value was 0.508.

Question: And the Bliss excess [10]?
Answer: Its Bliss excess is -0.0561.

Question: What about the Bliss excess [11] of the same compound?
Answer: Its Bliss excess is 0.008.

Question: And the Bliss excess [12]?
Answer: The Bliss excess was 0.0913.

Question: What about the Bliss excess [13] of the same compound?
Answer: Its Bliss excess is -0.0093.

Question: And the Bliss excess [14]?
Answer: Its Bliss excess is 0.0194.

Question: And the Bliss excess [15]?
Answer: The Bliss excess was -0.0306.

Question: What about the Bliss excess [16] of the same compound?
Answer: Its Bliss excess is 0.0094.

Question: What about the Bliss excess [17] of the same compound?
Answer: Its Bliss excess is 0.0366.

Question: And the Bliss excess [18]?
Answer: The Bliss excess was -0.0029.

Question: And the Bliss excess [19]?
Answer: Its Bliss excess is 0.0127.

Question: And the Bliss excess [20]?
Answer: Its Bliss excess is 0.0641.

Question: With Cc1cc2ncnn2cc1Nc1ncc2c(n1)n(C1CCOCC1)c(=O)n2C [AZD7648] + O=C(c1cc(Cc2n[nH]c(=O)c3ccccc23)ccc1F)N1CCN(C(=O)C2CC2)CC1 [Olaparib] (first compound max 10 µM, 7x7, partner max 10 µM) as the compound, how does the “combination Emax” value [1] read?
Answer: Its value is 0.513.

Question: What about the “combination Emax” value [2] of the same compound?
Answer: Its value is 0.0731.

Question: What about the “combination Emax” value [3] of the same compound?
Answer: Its value is 0.116.

Question: What about the “combination Emax” value [4] of the same compound?
Answer: Its value is 0.262.

Question: What about the “combination Emax” value [5] of the same compound?
Answer: The value was 0.205.

Question: What about the “combination Emax” value [6] of the same compound?
Answer: Its value is 0.723.

Question: And the “combination Emax” value [7]?
Answer: The value was 0.303.

Question: What about the “combination Emax” value [8] of the same compound?
Answer: Its value is 0.19.

Question: What about the “combination Emax” value [9] of the same compound?
Answer: Its value is 0.335.

Question: And the Bliss excess [10]?
Answer: The Bliss excess was -0.027.

Question: And the Bliss excess [11]?
Answer: The Bliss excess was -0.05.

Question: And the Bliss excess [12]?
Answer: The Bliss excess was -0.042.

Question: And the Bliss excess [13]?
Answer: Its Bliss excess is -0.0431.

Question: And the Bliss excess [14]?
Answer: Its Bliss excess is -0.0004.

Question: And the Bliss excess [15]?
Answer: The Bliss excess was 0.0151.

Question: And the Bliss excess [16]?
Answer: The Bliss excess was 0.0268.

Question: What about the Bliss excess [17] of the same compound?
Answer: Its Bliss excess is -0.0313.

Question: What about the Bliss excess [18] of the same compound?
Answer: The Bliss excess was -0.0251.

Question: And the Bliss excess [19]?
Answer: Its Bliss excess is 0.0339.

Question: And the Bliss excess [20]?
Answer: Its Bliss excess is -0.0387.

Question: Which results are given for NC1(C(=O)N[C@@H](CCO)c2ccc(Cl)cc2)CCN(c2ncnc3[nH]ccc23)CC1 [Capivasertib] + CC(=O)c1c(C)c2cnc(Nc3ccc(N4CCNCC4)cn3)nc2n(C2CCCC2)c1=O [Palbociclib] (first compound max 10 µM, 7x7, partner max 10 µM)?
Answer: combination Emax [1]: 0.858; combination Emax [2]: 0.259; combination Emax [3]: 0.214; combination Emax [4]: 0.483; combination Emax [5]: 0.552; combination Emax [6]: 0.804; combination Emax [7]: 0.654; combination Emax [8]: 0.675; combination Emax [9]: 0.254; Bliss excess [10]: -0.0107; Bliss excess [11]: 0.0133; Bliss excess [12]: -0.0263; Bliss excess [13]: 0.0142; Bliss excess [14]: -0.0472; Bliss excess [15]: -0.0047; Bliss excess [16]: -0.0309; Bliss excess [17]: 0.0815; Bliss excess [18]: 0.0439; Bliss excess [19]: 0.0203; Bliss excess [20]: -0.0138

Question: Which results are given for NC1(C(=O)N[C@@H](CCO)c2ccc(Cl)cc2)CCN(c2ncnc3[nH]ccc23)CC1 [Capivasertib] + CC(C)n1c(=O)n(C)c2cnc3cc(F)c(-c4ccc(OCCCN5CCCCC5)nc4)cc3c21 [AZD1390] (first compound max 10 µM, 7x7, partner max 0.3 µM)?
Answer: combination Emax [1]: 0.675; combination Emax [2]: 0.222; combination Emax [3]: 0.279; combination Emax [4]: 0.28; combination Emax [5]: 0.139; combination Emax [6]: 0.586; combination Emax [7]: 0.624; combination Emax [8]: 0.471; combination Emax [9]: 0.139; Bliss excess [10]: -0.0863; Bliss excess [11]: -0.0104; Bliss excess [12]: -0.0625; Bliss excess [13]: -0.0254; Bliss excess [14]: -0.0081; Bliss excess [15]: -0.0441; Bliss excess [16]: -0.0281; Bliss excess [17]: -0.0074; Bliss excess [18]: -0.0306; Bliss excess [19]: -0.024; Bliss excess [20]: -0.0511
